Literature values as cited in patent US20230404934A1, “ON DEMAND AND LONG-TERM DRUG DELIVERY FROM DEGRADABLE NANOCAPSULES” (University of Maryland, Baltimore County, priority 2020, published 2023).

Conditions: topical to the eye

- washout from the eye after topical administration: washes out very quickly, within minutes
SMILES: Cc1ccc(=O)n(-c2ccccc2)c1 [pirfenidone, 5-methyl-1-phenylpyridin-2-one]
- amount in the back of the eye after topical administration: no measurable amounts in the back of the eye
